Here are results for 29 compounds from US9914730B2, “Azaquinazoline inhibitors of Atypical protein Kinase C” (Ignyta, Inc., priority 2012, dated 2018).

Bounds are passed on as bounds.

In the assay the target is T1, full-length human PKCι (Homo sapiens, UniProt P41743).
T1 construct: Recombinant, full-length human PKCι expressed in Sf21 insect cells is also commercially available; purchased; host or cells: Sf21 insect cells
T1 sequence (P41743 1-596): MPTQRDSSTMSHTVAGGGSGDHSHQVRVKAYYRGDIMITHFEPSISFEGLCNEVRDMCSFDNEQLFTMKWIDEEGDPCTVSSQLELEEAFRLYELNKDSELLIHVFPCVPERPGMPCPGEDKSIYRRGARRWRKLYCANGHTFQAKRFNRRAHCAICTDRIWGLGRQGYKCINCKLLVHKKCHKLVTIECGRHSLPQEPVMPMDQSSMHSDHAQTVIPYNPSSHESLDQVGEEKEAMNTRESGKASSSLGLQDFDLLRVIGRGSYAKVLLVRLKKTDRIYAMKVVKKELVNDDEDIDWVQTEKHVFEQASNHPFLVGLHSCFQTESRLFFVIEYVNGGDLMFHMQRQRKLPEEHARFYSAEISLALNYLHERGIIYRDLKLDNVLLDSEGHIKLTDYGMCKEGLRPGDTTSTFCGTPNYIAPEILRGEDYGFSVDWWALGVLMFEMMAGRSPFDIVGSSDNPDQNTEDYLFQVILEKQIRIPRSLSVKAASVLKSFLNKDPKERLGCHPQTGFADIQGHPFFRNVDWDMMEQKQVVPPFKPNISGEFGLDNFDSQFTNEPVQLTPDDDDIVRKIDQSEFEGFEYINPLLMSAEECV
Nature of the assay: PKCι IC50 IMAP assay, full-length PKCι at 150 μM ATP. In kind it is biochemical. As to conditions: read-out: IC50 in IMAP assay against full length PKCi at 150 μM ATP. The method in brief:
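Compounds in 4% final DMSO are mixed with Sf21-derived full-length human PKCι (typically 15 pM) and 100 nM FAM-labelled pseudosubstrate peptide, then started with 150 μM ATP. Reaction runs 60 min at room temperature, is quenched with IMAP development reagent for 2 h, and fluorescence polarisation is measured to derive IC50.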

One may read the IC50 as the midpoint of a concentration-inhibition curve. With `COC(=O)[C@@H]1C[C@H](NC(=O)[C@@H]2C[C@H](Nc3nc(-c4ccncc4)nc4cnccc34)CN2)CN1` [Example 40, methyl (2S,4S)-4-[(2S,4S)-4-{[2-(pyridin-4-yl)-pyrido[3,4-d]-pyrimidin-4-yl]-amino}pyrrolidine-2-amido]pyrrolidine-2-carboxylate], the 50% inhibitory concentration (IC50) lay in the range of 1 to 10 µM.
Next, `COc1cncc2nc(-c3ccnc(NC(=O)Cc4ccc(C#N)cc4)c3)nc(N3CCNCC3)c12` [Example 355, 2-(4-Cyano-phenyl)-N-[4-(5-methoxy-4-piperazin-1-yl-pyrido[3,4-d]pyrimidin-2-yl)-pyridin-2-yl]-acetamide]: under 0.1 µM.
Take `CC(C)[C@H]1CN(c2nc(-c3ccnc(Nc4ccccc4)c3)nc3cncc(C4CC4)c23)CCN1` [Example 275, {4-[5-Cyclopropyl-4-((S)-3-isopropyl-piperazin-1-yl)-pyrido[3,4-d]pyrimidin-2-yl]-pyridin-2-yl}-phenyl-amine]: the IC50 is under 0.1 µM.
As to `C=Cc1cncc2nc(-c3ccnc(Nc4c(F)cccc4F)c3)nc(N3CCNCC3)c12` [Example 2094, (2,6-Difluoro-phenyl)-[4-(4-piperazin-1-yl-5-vinyl-pyrido[3,4-d]pyrimidin-2-yl)-pyridin-2-yl]-amine], the IC50 is under 0.1 µM.
Next, `CC1(C)CC(Nc2nc(-c3ccnc(Nc4c(F)cccc4F)c3)nc3cncc(C4CC4)c23)CCN1` (centres unmarked) [Example 2038, {5-Cyclopropyl-2-[2-(2,6-difluoro-phenylamino)-pyridin-4-yl]-pyrido[3,4-d]pyrimidin-4-yl}-(2,2-dimethyl-piperidin-4-yl)-amine]: under 0.1 µM; `COc1cncc2nc(N3CCOCC3)nc(N3CCC[C@H](Nc4ccccc4)C3)c12` [Example 1007, [(S)-1-(5-Methoxy-2-morpholin-4-yl-pyrido[3,4-d]pyrimidin-4-yl)-piperidin-3-yl]-phenyl-amine]: 1 to 10 µM; `c1ncc2nc(N3CCOCC3)nc(N3CCNCC3)c2c1C1CC1` [Example 1016, 5-Cyclopropyl-2-morpholin-4-yl-4-piperazin-1-yl-pyrido[3,4-d]pyrimidine]: under 0.1 µM.
For the compound `O=C(O)Cc1ccc(Nc2cc(-c3nc(N4CCNCC4)c4c(C5CC5)cncc4n3)ccn2)cc1` [Example 709, {4-[4-(5-Cyclopropyl-4-piperazin-1-yl-pyrido[3,4-d]pyrimidin-2-yl)-pyridin-2-ylamino]-phenyl}-acetic acid], the concentration for half-maximal inhibition (IC50) lay within 0.1 to 1 µM.
`CN1CCN(c2nc(-c3ccnc(Nc4cccc(N5CCC(O)CC5)c4)c3)nc3cncc(C4CC4)c23)CC1` [Example 728, 1-(3-{4-[5-Cyclopropyl-4-(4-methyl-piperazin-1-yl)-pyrido[3,4-d]pyrimidin-2-yl]-pyridin-2-ylamino}-phenyl)-piperidin-4-ol]: the IC50 lay in the range of 0.1 to 1 µM.
Next, `Fc1cnc(Nc2cc(-c3nc(N4CCNCC4)c4c(C5CC5)cnc(C5CC5)c4n3)ccn2)c(F)c1` [Example 2188, [4-(5,8-Dicyclopropyl-4-piperazin-1-yl-pyrido[3,4-d]pyrimidin-2-yl)-pyridin-2-yl]-(3,5-difluoro-pyridin-2-yl)-amine]: 0.1 to 1 µM; `FC(F)(F)c1cc2c(-c3nc(N4CCNCC4)c4c(C5CC5)cnc(Cl)c4n3)ccnc2[nH]1` [Example 2071, 8-Chloro-5-cyclopropyl-4-piperazin-1-yl-2-(2-trifluoromethyl-1H-pyrrolo[2,3-b]pyridin-4-yl)-pyrido[3,4-d]pyrimidine]: under 0.1 µM; `CC(C)(C)c1cc2c(-c3nc(N4CCC(O)CC4)c4c(C5CC5)cncc4n3)ccnc2[nH]1` [Example 1247, 1-[2-(2-tert-Butyl-1H-pyrrolo[2,3-b]pyridin-4-yl)-5-cyclopropyl-pyrido[3,4-d]pyrimidin-4-yl]-piperidin-4-ol]: under 0.1 µM.
Next, `CC(C)(C)c1cc2c(-c3nc(N4CCNCC4)c4c(C5CC5)cnc(Cl)c4n3)ccnc2[nH]1` [Example 2118, 2-(2-tert-Butyl-1H-pyrrolo[2,3-b]pyridin-4-yl)-8-chloro-5-cyclopropyl-4-piperazin-1-yl-pyrido[3,4-d]pyrimidine]: under 0.1 µM; `CC(C)NC(=O)C1CCN(c2nc(-c3ccnc(NC4CCCC4)c3)nc3cncc(C4CC4)c23)CC1` [Example 679, 1-[2-(2-Cyclopentylamino-pyridin-4-yl)-5-cyclopropyl-pyrido[3,4-d]pyrimidin-4-yl]-piperidine-4-carboxylicacid isopropylamide]: 1 to 10 µM.
In the case of `C[C@@H]1CN(c2nc(-c3ccnc(Nc4c(F)cccc4F)c3)nc3cncc(C4CC4)c23)C[C@H](C)N1` [Example 843, {4-[5-Cyclopropyl-4-((3R,5S)-3,5-dimethyl-piperazin-1-yl)-pyrido[3,4-d]pyrimidin-2-yl]-pyridin-2-yl}-(2,6-difluoro-phenyl)-amine], the IC50 is under 0.1 µM.
Next, `Fc1cccc(F)c1-n1cc(Nc2cc(-c3nc(N4CCNCC4)c4c(C5CC5)cncc4n3)ccn2)cn1` [Example 818, [4-(5-Cyclopropyl-4-piperazin-1-yl-pyrido[3,4-d]pyrimidin-2-yl)-pyridin-2-yl]-[1-(2,6-difluoro-phenyl)-1H-pyrazol-4-yl]-amine]: under 0.1 µM.
Next, `COc1cncc2nc(-c3ccncc3)nc(N3CCNC(CF)C3)c12` (centres unmarked) [Example 54, 3-(fluoromethyl)-1-[5-methoxy-2-(pyridin-4-yl)-pyrido[3,4-d]-pyrimidin-4-yl]-piperazine]: 1 to 10 µM.
Regarding `CC[C@H]1CN(c2nc(-c3ccncc3)nc3cnccc23)CCN1` [Example 61, (3S)-3-ethyl-1-[2-(pyridin-4-yl)-pyrido[3,4-d]-pyrimidin-4-yl]-piperazine], the IC50 lay within 1 to 10 µM.
For `Cc1ccc(Nc2cc(-c3nc(N4CCNCC4)c4c(C5CC5)cncc4n3)ccn2)c(F)c1` [Example 575, [4-(5-Cyclopropyl-4-piperazin-1-yl-pyrido[3,4-d]pyrimidin-2-yl)-pyridin-2-yl]-(2-fluoro-4-methyl-phenyl)-amine], the IC50 was under 0.1 µM.
Next, `COc1cc(Nc2cc(-c3nc(N4CCNCC4)c4c(OC)cncc4n3)ccn2)cc(OC)c1OC` [Example 390, [4-(5-Methoxy-4-piperazin-1-yl-pyrido[3,4-d]pyrimidin-2-yl)-pyridin-2-yl]-(3,4,5-trimethoxy-phenyl)-amine]: 0.1 to 1 µM.
For the compound `COc1cncc2nc(-c3ccnc(Nc4ccccc4F)c3)nc(N3CCNCC3)c12` [Example 206, (2-Fluoro-phenyl)-[4-(5-methoxy-4-piperazin-1-yl-pyrido[3,4-d]pyrimidin-2-yl)-pyridin-2-yl]-amine], the IC50 is under 0.1 µM.
For `COc1cncc2nc(-c3ccnc(Nc4c(C)cccc4F)c3)nc(N3CCNCC3)c12` [Example 422, (2-Fluoro-6-methyl-phenyl)-[4-(5-methoxy-4-piperazin-1-yl-pyrido[3,4-d]pyrimidin-2-yl)-pyridin-2-yl]-amine], the half-inhibitory concentration (IC50) was under 0.1 µM.
With `C[C@H]1CN(c2nc(-c3ccnc(Nc4ncccc4F)c3)nc3cncc(C4CC4)c23)CCN1` [Example 800, {4-[5-Cyclopropyl-4-((S)-3-methyl-piperazin-1-yl)-pyrido[3,4-d]pyrimidin-2-yl]-pyridin-2-yl}-(3-fluoro-pyridin-2-yl)-amine], the IC50 was under 0.1 µM.
Next, `FC(F)(F)C(Nc1cc(-c2nc(N3CCNCC3)c3c(C4CC4)cncc3n2)ccn1)c1ccccc1` (centres unmarked) [Example 706, [4-(5-Cyclopropyl-4-piperazin-1-yl-pyrido[3,4-d]pyrimidin-2-yl)-pyridin-2-yl]-(2,2,2-trifluoro-1-phenyl-ethyl)-amine]: 0.1 to 1 µM; `COc1cncc2nc(-c3ccncc3)nc(N3CCN[C@@H](C(F)c4ccccc4)C3)c12` (stereo partly drawn) [Example 76, (3R)-3-[fluoro(phenyl)-methyl]-1-[5-methoxy-2-(pyridin-4-yl)-pyrido[3,4-d]-pyrimidin-4-yl]-piperazine]: under 0.1 µM.
Consider `c1cc(Nc2cc(-c3nc(N4CCCC4)c4c(C5CC5)cncc4n3)ccn2)cc(N2CCNCC2)c1` [Example 766, [4-(5-Cyclopropyl-4-pyrrolidin-1-yl-pyrido[3,4-d]pyrimidin-2-yl)-pyridin-2-yl]-(3-piperazin-1-yl-phenyl)-amine], for which the IC50 was 0.1 to 1 µM.
Next, `COc1cncc2nc(-c3ccncc3)nc(N3CCN(CC(N)=O)[C@@H](Cc4ccccc4)C3)c12` [Example 48, 2-[(2S)-2-benzyl-4-[5-methoxy-2-(pyridin-4-yl)-pyrido[3,4-d]-pyrimidin-4-yl]-piperazin-1-yl]acetamide]: 1 to 10 µM; `C[C@@H](Nc1cc(-c2nc(N3CCNCC3)c3c(C4CC4)cncc3n2)ccn1)c1ccccc1` [Example 586, [4-(5-Cyclopropyl-4-piperazin-1-yl-pyrido[3,4-d]pyrimidin-2-yl)-pyridin-2-yl]-((R)-1-phenyl-ethyl)-amine]: under 0.1 µM.
Next, `COc1cncc2nc(-c3ccnc(Nc4nc(C)co4)c3)nc(N3CCNCC3)c12` [Example 221, [4-(5-Methoxy-4-piperazin-1-yl-pyrido[3,4-d]pyrimidin-2-yl)-pyridin-2-yl]-(4-methyl-oxazol-2-yl)-amine]: under 0.1 µM.
